The values below come from US20190054186A1, “Magnetic Nanoparticle-Polymer Complexes and uses Thereof” (The University of North Carolina at Chapel Hill, priority 2016, published 2019).

Assay [1] has as its system lysosomes of MDA-MB-231, BT474 and MCF10A cells. The assay is described as follows: Lysosomal membrane permeabilization, acridine orange assay. It counts as cell-based, human. The settings on record: positive control, 150 μM, three hours, no field. On the procedure: MDA-MB-231, BT474 and MCF10A cells were seeded at 1×10^5 cells/well in 8-well Lab-Tek II Chamber slides. Cells were allowed to adhere for several days and were treated with PAA-P85-MNPs at a concentration of 0.1 mg/mL. After 24 h, the cells were washed and then exposed to an AC magnetic field (50 Hz, 50 kA/m) using the pulsed exposure regime for a total of 30 min. Three hours post exposure, cells were treated for 15 min with 10 μg/mL acridine orange stain. The cells were washed 3× with PBS and kept in complete media for imaging. Positive control cells were treated with 150 μM hydrogen peroxide for 3 h followed by thorough washing and staining with acridine orange. Live cell images were acquired using a Zeiss CLSM 710 Spectral Confocal Laser Scanning Microscope with the 63×/1.4 Oil Plan Apo lens.

For assay [2], the system named is actin cytoskeleton of MDA-MB-231, BT474 and MCF10A cells. The assay can be described thus: Actin cytoskeleton confocal imaging after pulsed AC magnetic field. Conditions: cancerous cells, CD alone (100 nM). It is filed as cell-based, human. On the procedure:
For confocal studies, MDA-MB-231, BT474 and MCF10A cells were plated on Lab-Tek II Chamber slides at a concentration of 1×10^5 cells/well and allowed to grow overnight. The cells were then treated with 0.1 mg/mL Alexa Fluor® 647-PAA-P85-MNP for 24 h followed by thorough washing with acid saline and replacement with complete media. The cells were incubated with 100 nM CD for 1 h to enact cytoskeletal damage in a nonlethal capacity. After washing, the cells were exposed to the pulsed AC magnetic field (50 Hz, 50 kA/m) (10 min on, 5 min off, total exposure 30 min). Appropriate controls included cells not exposed to the magnetic field and untreated cells. Cells were then incubated at 37° C. for 24 h, fixed using 4% paraformaldehyde and permeabilized using 0.5% Triton-X 100. Fixed cells were stained with ActinGreen 488 (Life Technologies, Carlsbad, Calif.), a phalloidin-based actin stain and Hoechst 33342. Images were acquired using a Zeiss CLSM 710 Spectral Confocal Laser Scanning Microscope with the 63×/1.4 Oil Plan Apo lens.

Regarding `OO` [hydrogen peroxide], the “lysosomal membrane permeabilization (acridine orange)” value in assay [1] is recorded as “loss of punctuate red fluorescence”. Regarding `C=C1[C@@H](C)[C@H]2[C@H](Cc3ccccc3)NC(=O)[C@]23[C@H](OC(C)=O)/C=C/[C@@](C)(O)C(=O)[C@@H](C)C/C=C/[C@H]3[C@@H]1O` [CD, Cytochalasin D], the actin cytoskeleton structure result in assay [2] was “No significant differences in the cytoskeleton structure”.
